The source of these data is patent US9611275B2 (priority 2012, dated 2017).

The nature of this data set: Assay for determination of apparent permeability (Papp), bi-directional transport. The note with it: pig, LLC-PK1.
As for `CN(C)C1=N[C@@H]2[C@@H](O)[C@H](O)[C@@H]([C@@H](OCCCc3ccc(F)cc3)C(F)(F)F)O[C@@H]2S1` [Example 36, (3aR,5S,6S,7R,7aR)-2-(dimethylamino)-5-((R)-2,2,2-trifluoro-1-(3-(4-fluorophenyl)propoxy)ethyl)-5,6,7,7a-tetrahydro-3aH-pyrano[3,2-d]thiazole-6,7-diol], the Papp at 3 h, 1 μM came out at 28.1 ×10⁻⁶ cm/s.

`CCc1ccc(CO[C@H]([C@H]2O[C@@H]3SC(NC)=N[C@@H]3[C@@H](O)[C@@H]2O)C(F)(F)F)cc1` [Example 86, (3aR,5S,6S,7R,7aR)-5-((R)-1-(4-ethylbenzyloxy)-2,2,2-trifluoroethyl)-2-(methylamino)-5,6,7,7a-tetrahydro-3aH-pyrano[3,2-d]thiazole-6,7-diol]: the Papp at 3 h, 1 μM amounted to 29.9 ×10⁻⁶ cm/s.

On to `CNC1=N[C@@H]2[C@@H](O)[C@H](O)[C@@H]([C@@H](OCc3ccccc3)C(F)(F)F)O[C@@H]2S1` [Example 84, (3aR,5S,6S,7R,7aR)-5-((R)-1-(benzyloxy)-2,2,2-trifluoroethyl)-2-(methylamino)-5,6,7,7a-tetrahydro-3aH-pyrano[3,2-d]thiazole-6,7-diol], for which the apparent permeability (Papp) at 3 h, 1 μM came to 27 ×10⁻⁶ cm/s.

Turning to `CO[C@H]([C@H]1O[C@@H]2SC(N(C)C)=N[C@@H]2[C@@H](O)[C@@H]1O)C(F)(F)F` [Example 2, (3aR,5S,6S,7R,7aR)-2-(dimethylamino)-5-((R)-2,2,2-trifluoro-1-methoxyethyl)-5,6,7,7a-tetrahydro-3aH-pyrano[3,2-d]thiazole-6,7-diol], the Papp at 3 h, 1 μM stood at 20.8 ×10⁻⁶ cm/s.

In the case of `CCCCO[C@H]([C@H]1O[C@@H]2SC(N(C)C)=N[C@@H]2[C@@H](O)[C@@H]1O)C(F)(F)F` [Example 26, (3aR,5S,6S,7R,7aR)-5-((R)-1-butoxy-2,2,2-trifluoroethyl)-2-(dimethylamino)-5,6,7,7a-tetrahydro-3aH-pyrano[3,2-d]thiazole-6,7-diol], the Papp at 3 h, 1 μM is 30.8 ×10⁻⁶ cm/s.

On to `CN(C)C1=N[C@@H]2[C@@H](O)[C@H](O)[C@@H]([C@@H](OCCCCF)C(F)(F)F)O[C@@H]2S1` [Example 30, (3aR,5S,6S,7R,7aR)-2-(dimethylamino)-5-((R)-2,2,2-trifluoro-1-(4-fluorobutoxy)ethyl)-5,6,7,7a-tetrahydro-3aH-pyrano[3,2-d]thiazole-6,7-diol], for which the apparent permeability coefficient (Papp) at 3 h, 1 μM was determined as 30.8 ×10⁻⁶ cm/s.

In the case of `CNC1=N[C@@H]2[C@@H](O)[C@H](O)[C@@H]([C@@H](OCc3cc(C)c(OC)c(C)c3)C(F)(F)F)O[C@@H]2S1` [Example 101, (3aR,5S,6S,7R,7aR)-2-(methylamino)-5-((R)-2,2,2-trifluoro-1-(4-methoxy-3,5-dimethylbenzyloxy)ethyl)-5,6,7,7a-tetrahydro-3aH-pyrano[3,2-d]thiazole-6,7-diol], the Papp at 3 h, 1 μM was 28.9 ×10⁻⁶ cm/s.

Regarding `CCc1cc(CO[C@H]([C@H]2O[C@@H]3SC(NC)=N[C@@H]3[C@@H](O)[C@@H]2O)C(F)(F)F)ccc1OC` [Example 100, (3aR,5S,6S,7R,7aR)-5-((R)-1-(3-ethyl-4-methoxybenzyloxy)-2,2,2-trifluoroethyl)-2-(methylamino)-5,6,7,7a-tetrahydro-3aH-pyrano[3,2-d]thiazole-6,7-diol], the apparent permeability coefficient (Papp) at 3 h, 1 μM turned out to be 28.1 ×10⁻⁶ cm/s.

`CNC1=N[C@@H]2[C@@H](O)[C@H](O)[C@@H]([C@@H](OCCC3CCCCC3)C(F)(F)F)O[C@@H]2S1` [Example 80, (3aR,5S,6S,7R,7aR)-5-((R)-1-(2-cyclohexylethoxy)-2,2,2-trifluoroethyl)-2-(methylamino)-5,6,7,7a-tetrahydro-3aH-pyrano[3,2-d]thiazole-6,7-diol]: the Papp at 3 h, 1 μM is 28.5 ×10⁻⁶ cm/s.

As for `CCc1ccc(CO[C@H]([C@H]2O[C@@H]3SC(N(C)C)=N[C@@H]3[C@@H](O)[C@@H]2O)C(F)(F)F)cc1` [Example 41, (3aR,5S,6S,7R,7aR)-2-(dimethylamino)-5-((R)-1-(4-ethylbenzyloxy)-2,2,2-trifluoroethyl)-5,6,7,7a-tetrahydro-3aH-pyrano[3,2-d]thiazole-6,7-diol], the apparent permeability (Papp) at 3 h, 1 μM was determined as 30.7 ×10⁻⁶ cm/s.
